# Reference: patent US8354407B2 (Boehringer Ingelheim International GmbH, priority 2006, dated 2013)
# Molecular target: T1, full-length human PKCα enzyme (Homo sapiens, UniProt P17252)
# T1 construct: full-length human PKCα enzyme; purchased Upstate Biotechnology
# Assay: Assessment of PKC-α Inhibitory Activity (MALDI-TOF kinase assay)
# Assay type: biochemical
# Conditions: full-length human PKCα 0.12 μg/ml; ATP 45 μM; neurogranin 28-43 peptide 22 μM; 30 minute incubation at 24° C.; MALDI-TOF MS readout
# Description: Measurement of PKCα enzyme activity is performed using full-length human PKCα enzyme (Upstate Biotechnology) at a final concentration of 0.12 μg/ml in a kinase assay buffer (0.09 mg/ml bovine serum albumin (BSA), 210 μM ethylenediaminetetraacetic acid (EDTA), 360 μM CaCl2, 1 mM Tris-HCl, pH=7.5, 0.5 mM MgCl2, 0.015 mg/ml phosphatidylserine and 0.015 mg/ml diacylglycerol). The reaction is initiated by addition of adenosine triphosphate (ATP; final concentration 45 μM) and a peptide substrate consisting of amino acids 28-43 (Ala-Ala-Lys-Ile-Gln-Ala-Ser-Phe-Arg-Gly-His-Met-Ala-Arg-Lys-Lys) of neurogranin (Promega; final concentration 22 μM). After a 30 minute incubation at 24° C. the reaction is terminated by adding 5 μL of the reaction mixture into 50 μL of MALDI matrix solution (5 mg/ml α-cyano-4-hydroxycinnamic acid in 50% Acetonitrile/H2O, 0.1% TFA, 5 mM ammonium phosphate). Two microliters of the stopped reaction mixture is transferred onto a MALDI-TOF mass spectrometer target plate.
# All spectra are collected on an Applied Biosystems 4700 Proteomics Analyzer MALDI-TOF MS equipped with a Nd:YAG laser (355 nm, 3 ns pulse width, 200 Hz repetition rate) in negative ion reflector mode. The system is operated with 4700 Explorer software, version 3.0. Automated acquisition parameters are adjusted to capture and average only those individual spectra within defined success criteria. Specifically, signal intensities for the substrate peptide are set to a minimum threshold of 3000 counts and a maximum intensity of 65,000 counts. This ensured that neither null spectra nor saturated spectra are averaged into the final readout. Between 1000 and 1500 laser shots are averaged for each sample. Data are collected in triplicate from 3 successive days to capture the maximum variability related to preparation of enzyme reaction, transfer of samples to MALDI target plates, data collection, and data extraction.
# The isotope cluster areas for each peptide substrate and product peaks are extracted into a Microsoft Excel worksheet from the 10×10 array of spectral data simultaneously using the automated analysis function provided within the 4700 Explore software. The isotope cluster area is defined by the software algorithm based on the molecular weight and the general elemental composition of the peptides. The percent conversion (% C) of substrate to product is calculated as the cluster area of the product (P) divided by the sum of the cluster areas of the substrate (S) and the product multiplied by 100 as represented by the following equation: […]
# For dose-dependent inhibition studies, the inhibition is plotted as a % Maximal Activity (% MA). Equation one is a measure of the ratio of product to substrate then solving for the % C. However, to measure inhibition of the enzyme activity, one must measure the degree to which that activity (% C) is curtailed. Thus the dose-dependant inhibition data is plotted as % MA where the maximal activity is the % C measured in control reactions with no inhibitor as represented by the following equation: […]
row,Compound,IC50 [nM]
1,"c1cc(Cc2cc3ccccc3[nH]2)cc(Nc2nccc(NCCCN3CCOCC3)n2)c1 [N^2-[3-(1H-Indol-2-ylmethyl)-phenyl]-N^4-(3-morpholin-4-yl-propyl)-pyrimidine-2,4-diamine]",18
2,"COc1cccc(Nc2nccc(NCCCN3CCCC3)n2)c1 [N^2-[3-Methoxyphenyl]-N^4-(3-pyrrolidin-1-yl-propyl)-pyrimidine-2,4-diamine]",16
3,"Brc1cccc(Nc2nccc(NCCCN3CCOCC3)n2)c1 [N^2-(3-Bromophenyl)-N^4-(3-morpholin-4-yl-propyl)-pyrimidine-2,4-diamine]",1
4,"Clc1cccc(Nc2nccc(NCCCN3CCCC3)n2)c1 [N^2-(3-Chlorophenyl)-N^4-(3-pyrrolidin-1-yl-propyl)-pyrimidine-2,4-diamine]",3
5,"FC(F)(F)c1cccc(Nc2nccc(NCCCN3CCCC3)n2)c1 [N^2-[3-Trifluoromethyl-phenyl]-N^4-(3-pyrrolidin-1-yl-propyl)-pyrimidine-2,4-diamine]",0.5
6,"Clc1cc(Nc2nccc(NCCCN3CCCC3)n2)ccc1OCc1ccccc1 [N^2-(4-(Benzyloxy)-3-chlorophenyl)-N^4-(3-pyrrolidin-1-yl-propyl)-pyrimidine-2,4-diamine]",40
7,"Clc1cccc(Nc2nccc(NCC3CNCCO3)n2)c1 (stereo not drawn) [N^2-(3-Chlorophenyl)-N^4-morpholin-2-ylmethyl-pyrimidine-2,4-diamine]",23
8,"Clc1cccc(Nc2nccc(NCCCN3CCOCC3)n2)c1 [N^2-(3-Chlorophenyl)-N^4-(3-morpholin-4-yl-propyl)-pyrimidine-2,4-diamine]",2
9,"Fc1cccc(Nc2nccc(NCCCN3CCOCC3)n2)c1 [N^2-(3-Fluorophenyl)-N^4-(3-morpholin-4-yl-propyl)-pyrimidine-2,4-diamine]",64
10,OCc1cccc(Nc2nccc(NCCCN3CCOCC3)n2)c1 [{3-[4-(3-Morpholin-4-yl-propylamino)-pyrimidin-2-ylamino]-phenyl}-methanol],465
11,"CN1CC[C@@H](CNc2ccnc(Nc3cccc(Cl)c3)n2)C1 [N^2-(3-Chlorophenyl)-N^4-{[(3S)-1-methylpyrrolidin-3-yl]methyl}pyrimidine-2,4-diamine]",13
12,"N^2-(3-Nitro-biphenyl-3-yl)-N^4-(3-morpholin-4-yl-propyl)-pyrimidine-2,4-diamine",182
13,"O=[N+]([O-])c1cccc(Nc2nccc(NCCCN3CCCC3)n2)c1 [N^2-(3-Nitrophenyl)-N^4-(3-pyrrolidin-1-yl-propyl)-pyrimidine-2,4-diamine]",2
14,O=S(=O)(Nc1ccccc1)c1cccc(Nc2nccc(NCCCN3CCOCC3)n2)c1,23
15,"FC(F)(F)c1cc(Nc2nccc(NCCCN3CCOCC3)n2)cc(C(F)(F)F)c1 [N^2-(3,5-Bis-trifluoromethyl-phenyl)-N^4-(3-morpholin-4-yl-propyl)-pyrimidine-2,4-diamine]",21
16,"CN1C2CCC1CC(Nc1ccnc(Nc3cccc(Cl)c3)n1)C2 (stereo not drawn) [N^2-(3-Chlorophenyl)-N^4-(8-methyl-8-azabicyclo[3.2.1]oct-3-yl)-pyrimidine-2,4-diamine]",4
17,"CN1CC[C@H](CNc2ccnc(Nc3cccc(Cl)c3)n2)C1 [N^2-(3-Chlorophenyl)-N^4—[(3R)-1-methylpyrrolidin-3-ylmethyl]-pyrimidine-2,4-diamine]",7
18,"CN1CCC(CNc2ccnc(Nc3cccc(Cl)c3)n2)CC1 [N^2-(3-Chlorophenyl)-N^4-(1-methylpiperidin-4-yl-methyl)-pyrimidine-2,4-diamine]",30

# The remaining lines, values ahead:
row,IC50 [nM],Compound
1,14,NS(=O)(=O)c1cccc(Nc2nccc(NCCCN3CCOCC3)n2)c1 [3-[4-(3-Morpholin-4-yl-propylamino)-pyrimidin-2-ylamino]-benzenesulfonamide]
2,12,O=C(Nc1cccc(Cl)c1)c1cccc(Nc2nccc(NCCCN3CCCC3)n2)c1 [N-(3-Chlorophenyl)-3-[4-(3-pyrrolidin-1-yl-propylamino)-pyrimidin-2-ylamino]-benzamide]
3,80,"CC(C)c1cccc(Nc2nccc(NCCCN3CCOCC3)n2)c1 [N^2-(3-Isopropylphenyl)-N^4-(3-morpholin-4-yl-propyl)-pyrimidine-2,4-diamine]"
4,28,"c1cncc(-c2cccc(Nc3nccc(NCCCN4CCOCC4)n3)c2)c1 [N^2-[3-(Pyridin-3-yl)-phenyl]-N^4-(3-morpholin-4-yl-propyl)-pyrimidine-2,4-diamine]"
5,50,"c1ccc(Oc2cccc(Nc3nccc(NCCCN4CCOCC4)n3)c2)cc1 [N^2-(3-Phenoxyphenyl)-N^4-(3-morpholin-4-yl-propyl)-pyrimidine-2,4-diamine]"
6,52,O=S(=O)(NCc1cccnc1)c1cccc(Nc2nccc(NCCCN3CCOCC3)n2)c1 [3-[4-(3-Morpholin-4-yl-propylamino)-pyrimidin-2-ylamino]-N-(pyridin-3-ylmethyl)-benzenesulfonamide]
7,37,"Clc1cccc(Nc2nccc(NCC3CCNCC3)n2)c1 [N^2-(3-Chloro-phenyl)-N^4-piperidin-4-ylmethyl-pyrimidine-2,4-diamine]"
8,83,"CN1CCN(S(=O)(=O)c2cccc(Nc3nccc(NCCCN4CCOCC4)n3)c2)CC1 [N^2-[3-(4-Methyl-piperazine-1-sulfonyl)phenyl]-N^4-(3-morpholin-4-ylpropyl)-pyrimidine-2,4-diamine]"
9,53,"CN(C)c1cccc(Nc2nccc(NCCCN3CCOCC3)n2)c1 [N^2-[3-(N,N-dimethylamino)-phenyl]-N^4-(3-morpholin-4-yl-propyl)-pyrimidine-2,4-diamine]"
10,5,"CN1CCN(CCCNc2ccnc(Nc3cccc(Cl)c3)n2)CC1 [N^2-(3-Chlorophenyl)-N^4-[3-(4-methylpiperazin-1-yl)-propyl]-pyrimidine-2,4-diamine]"
11,344,CC(C)NC(=O)c1cccc(Nc2nccc(NCCCN3CCCC3)n2)c1 [N-Isopropyl-3-[4-(3-pyrrolidin-1-yl-propylamino)-pyrimidin-2-ylamino]-benzamide]
12,0.4,"CN1CCCC1CCNc1ccnc(Nc2cccc(Cl)c2)n1 (stereo not drawn) [N^2-(3-Chlorophenyl)-N^4-[2-(1-methylpyrrolidin-2-yl)-ethyl]-pyrimidine-2,4-diamine]"
13,40,"Cc1cccc(Nc2nccc(NCCCN3CCCC3)n2)c1 [N^2-(3-Methylphenyl)-N^4-(3-pyrrolidin-1-yl-propyl)-pyrimidine-2,4-diamine]"
14,4,"CN1CCCC(CNc2ccnc(Nc3cccc(Cl)c3)n2)C1 (stereo not drawn) [N^2-(3-Chlorophenyl)-N^4-(1-methylpiperidin-3-ylmethyl)-pyrimidine-2,4-diamine]"
15,112,O=C(Nc1cccc(Nc2nccc(NCCCN3CCOCC3)n2)c1)c1cccnc1 [N-{3-[4-(3-Morpholin-4-yl-propylamino)-pyrimidin-2-ylamino]-phenyl}-nicotinamide]
16,25,"Clc1cccc(Nc2nccc(NCC3CCCNC3)n2)c1 (stereo not drawn) [N^2-(3-Chlorophenyl)-N^4-piperidin-3-ylmethyl-pyrimidine-2,4-diamine]"
17,3,"c1ccc(-c2cccc(Nc3nccc(NCCCN4CCOCC4)n3)c2)cc1 [N^2-Biphenyl-3-yl-N^4-(3-morpholin-4-yl-propyl)-pyrimidine-2,4-diamine]"
18,12,"c1cc(Nc2nccc(NCCCN3CCOCC3)n2)cc(-c2cccc3[nH]ccc23)c1 [N^2-[3-(1H-Indol-4-yl)-phenyl]-N^4-(3-morpholin-4-yl-propyl)-pyrimidine-2,4-diamine]"
19,40,"c1cc(Nc2nccc(NCCCN3CCOCC3)n2)cc(-c2nc3ccccc3s2)c1 [N^2-[3-(Benzo[d]thiazol-2-yl)-phenyl]-N^4-(3-morpholin-4-yl-propyl)-pyrimidine-2,4-diamine]"
20,25,O=C(Nc1cccc(Nc2nccc(NCCCN3CCOCC3)n2)c1)c1ccccc1 [N-{3-[4-(3-Morpholin-4-yl-propylamino)-pyrimidin-2-ylamino]-phenyl}-benzamide]
21,710,O=C1CCCN1CCCNc1ccnc(Nc2cccc(Cl)c2)n1 [1-{3-[2-(3-Chlorophenylamino)-pyrimidin-4-ylamino]-propyl}-pyrrolidin-2-one]
